For test [1], the system named is normal controls (NC) rats. Nature of the test: Normal control rats treated 8 weeks via drinking water (same study). To be noted: 1 g·L-1 in drinking water, n = 12, mean ± SEM. The class given is in vivo, Male Wistar rats. The method, then: (§1) Diabetes was induced in rats by a single tail vein injection with 55 mg·kg-1 steptozotocin (STZ). After induction of hyperglycaemia, animals were treated for 8 weeks with pyridoxamine (1 g·L-1 in drinking water) and Formula-I (1-2) (1 g·L-1 in drinking water) were compared with the age-matched untreated diabetic controls. Pulse wave reflection along the vasculature was derived using the impulse response function of the filtered aortic input impedance spectra.
(§2) Male Wistar rats at 2 months were randomly divided into six groups (n=12 in each group) as follows: (i) normal controls (NC); (ii) STZ-diabetic rats (DM); (iii) NC treated with PM (NC+PM); (iv) NC treated with Formula-I (1-2) (NC+Formula-I (1-2)); (v) DM treated with PM (DM+PM); and (vi) DM treated with Formula-I (1-2) (DM+Formula-I (1-2)). Diabetes was induced in animals by a single tail vein injection with 55 mg·kg-1 STZ in 0.1 M citrate buffer (pH 4.5). After confirmation of the development of hyperglycaemia (2 days later) by blood glucose determination using a sure step Test Strip, rats were randomly allocated into a vehicle-treated diabetic group, and a treatment group receiving PM in drinking water of 1 g·L-1 and Formula-I (1-2) in drinking water of 1 g·L-1. Animals were studied 8 weeks after exposure to PM to determine its effects on the pulsatile nature of blood flows in the diabetic arteries.
(§3) Effects of Diabetes and Pyridoxamine and Formula-I (1-2) on Blood Glucose Level, Body Weight, Left Ventricular Weight and Aortic Pressure Profile in Male Wistar Rats: […]

The subject of another test is STZ-diabetic rats. Nature of the test: Prevention of arterial stiffening in diabetes: STZ-diabetic rats treated 8 weeks via drinking water. The class given is in vivo, Male Wistar rats. To be noted: STZ-diabetic rats (DM), 1 g·L-1 in drinking water, n = 12, mean ± SEM. The method, then: as §1, §2, §3

`CC/C=C\C/C=C\C/C=C\C/C=C\C/C=C\CCCC(=O)OC(C)OC(=O)NCc1c(CO)cnc(C)c1O` (stereo not shown) [Formula 1(1-2)]: in test [1], the “BW (body weight)” value came out at 418.0 ± 13.8 g, the Glucose was 1.051 ± 0.014 mg/mL, the “LVW (left ventricular weight)” value came out at 0.789 ± 0.016 g and the LVW/BW amounted to 1.69 ± 0.04 mg/g. Further, in test [1], the “Pd (diastolic aortic pressure)” value is recorded as 76.7 ± 4.10 mmHg, the “Pm (mean aortic pressure)” value was found to be 91.4 ± 3.7 mmHg and the “Ps (systolic aortic pressure)” value stood at 103.1 ± 2.5 mmHg. Besides, in the test with STZ-diabetic rats, the “BW (body weight)” value stood at 299.8 ± 14.9 g, the Glucose came to 4.128 ± 0.189 mg/mL, the “LVW (left ventricular weight)” value is reported as 0.599 ± 0.0349 g and the LVW/BW was found to be 1.989 ± 0.034 mg/g. For the same compound, in the test on STZ-diabetic rats, the “Pd (diastolic aortic pressure)” value is reported as 72.5 ± 1.98 mmHg, the “Pm (mean aortic pressure)” value came out at 88.9 ± 1.96 mmHg and the “Ps (systolic aortic pressure)” value was found to be 102.7 ± 1.098 mmHg.

On to `Cc1ncc(CO)c(CN)c1O` [PM, pyridoxamine], for which, in test [1], the “BW (body weight)” value was 420.0 ± 11.5 g, the Glucose was 1.004 ± 0.032 mg/mL, the “LVW (left ventricular weight)” value is on record as 0.722 ± 0.023 g and the LVW/BW stood at 1.72 ± 0.03 mg/g. In test [1], the “Pd (diastolic aortic pressure)” value was found to be 77.6 ± 3.0 mmHg, the “Pm (mean aortic pressure)” value came out at 92.5 ± 2.7 mmHg and the “Ps (systolic aortic pressure)” value turned out to be 106.0 ± 2.5 mmHg. In the test on STZ-diabetic rats, the “BW (body weight)” value is 296.3 ± 16.4 g, the Glucose is 4.305 ± 0.209 mg/mL, the “LVW (left ventricular weight)” value was determined as 0.609 ± 0.029 g and the LVW/BW was 2.07 ± 0.04 mg/g. Also, in the test on STZ-diabetic rats, the “Pd (diastolic aortic pressure)” value is 73.2 ± 2.1 mmHg, the “Pm (mean aortic pressure)” value is 89.9 ± 2.0 mmHg and the “Ps (systolic aortic pressure)” value is 103.3 ± 2.0 mmHg.

These data come from patent US9522884B2, “Compositions and methods for the treatment of metabolic disorders” (CELLIXBIO PRIVATE LIMITED, priority 2012, dated 2016).
